What was measured:
Format in all cases: functional
Spodoptera litura [1] = assay: Insecticidal activity against Spodoptera litura assessed as pupal mortality at 0.5 ug/cm'2 of castor leaf area after 24 hr
Spodoptera litura [2] = assay: Growth regulating activity of Spodoptera litura assessed as fifth-instar time at 0.5 ug/cm'2 of castor leaf area after 24 hr
Spodoptera litura [3] = assay: Growth regulating activity of Spodoptera litura assessed as pupal time at 0.5 ug/cm'2 of castor leaf area after 24 hr
Spodoptera litura [4] = assay: Antifeedant activity against Spodoptera litura at 1 ug/cm'2 of castor leaf area relative to control
Spodoptera litura [5] = assay: Growth regulating activity of Spodoptera litura assessed as total larval time at 0.5 ug/cm'2 of castor leaf area after 24 hr
Spodoptera litura [6] = assay: Growth regulating activity of Spodoptera litura assessed as third-instar time at 0.5 ug/cm'2 of castor leaf area after 24 hr
Spodoptera litura [7] = assay: Antifeedant activity against Spodoptera litura at 5 ug/cm'2 of castor leaf area relative to control
Spodoptera litura [8] = assay: Growth regulating activity of Spodoptera litura assessed as sixth-instar time at 0.5 ug/cm'2 of castor leaf area after 24 hr
Spodoptera litura [9] = assay: Antifeedant activity against Spodoptera litura at 0.5 ug/cm'2 of castor leaf area relative to control
Spodoptera litura [10] = assay: Growth regulating activity of Spodoptera litura assessed as fourth-instar time at 0.5 ug/cm'2 of castor leaf area after 24 hr

## C/C=C(\C)C(=O)O[C@H]1C[C@@H](OC(C)=O)[C@@]2(C(=O)OC)CO[C@H]3[C@@H](O)[C@@](C)([C@]45O[C@@]4(C)[C@@H]4C[C@H]5O[C@@H]5OC=C[C@@]54O)[C@H]4[C@]1(CO[C@]4(O)C(=O)OC)[C@@H]32 [AZADIRACHTIN A]
Spodoptera litura [1]
  Activity: 62.5%
Spodoptera litura [2]
  Time: 3.3 days
Spodoptera litura [3]
  Time: 9.3 days
Spodoptera litura [4]
  Activity: 94.8%
Spodoptera litura [5]
  Time: 16.1 days
Spodoptera litura [6]
  Time: 3.2 days
Spodoptera litura [7]
  Activity: 95.4%
Spodoptera litura [8]
  Time: 5.4 days
Spodoptera litura [9]
  Activity: 91.6%
Spodoptera litura [10]
  Time: 4.1 days

## CC1=CC(=O)[C@@H](O)[C@@]2(C)[C@H]1[C@@H](O)[C@H]1OC(=O)C[C@]3(O)[C@]14CO[C@@]3(C)[C@@H](O)[C@H](O)[C@H]24 [INDAQUASSIN C]
Spodoptera litura [1]
  Activity: 10.5%
Spodoptera litura [2]
  Time: 3.4 days
Spodoptera litura [3]
  Time: 8.5 days
Spodoptera litura [4]
  Activity: 48.9%
Spodoptera litura [5]
  Time: 14.2 days
Spodoptera litura [6]
  Time: 2.3 days
Spodoptera litura [7]
  Activity: 62.5%
Spodoptera litura [8]
  Time: 4.9 days
Spodoptera litura [9]
  Activity: 47.6%
Spodoptera litura [10]
  Time: 3.8 days

## CC1=CC(=O)[C@@]2(C)C1=CC(=O)[C@@]13CO[C@]4(C)[C@@H](OC(=O)[C@@H]41)[C@H](O)[C@H]23 [SAMADERINS A]
Spodoptera litura [1]
  Activity: 7.4%
Spodoptera litura [2]
  Time: 3.6 days
Spodoptera litura [3]
  Time: 8.8 days
Spodoptera litura [4]
  Activity: 16.2%
Spodoptera litura [5]
  Time: 15.1 days
Spodoptera litura [6]
  Time: 2.9 days
Spodoptera litura [7]
  Activity: 21.1%
Spodoptera litura [8]
  Time: 4.8 days
Spodoptera litura [9]
  Activity: 18.9%
Spodoptera litura [10]
  Time: 3.6 days

## CC1=CC(=O)[C@@H](O)[C@@]2(C)[C@H]1CC(=O)[C@@]13CO[C@]4(C)[C@@H](OC(=O)[C@@H]41)[C@H](O)[C@@H]32 [SAMADERINS B]
Spodoptera litura [1]
  Activity: 37.5%
Spodoptera litura [2]
  Time: 3.4 days
Spodoptera litura [3]
  Time: 9.3 days
Spodoptera litura [4]
  Activity: 25.9%
Spodoptera litura [5]
  Time: 15.6 days
Spodoptera litura [6]
  Time: 3.1 days
Spodoptera litura [7]
  Activity: 63.1%
Spodoptera litura [8]
  Time: 5.1 days
Spodoptera litura [9]
  Activity: 16.3%
Spodoptera litura [10]
  Time: 3.8 days

## CC1=C[C@H](O)[C@@H](O)[C@@]2(C)[C@H]1CC(=O)[C@@]13CO[C@]4(C)[C@@H](OC(=O)[C@@H]41)[C@H](O)[C@@H]32 [SAMADERINS C]
Spodoptera litura [1]
  Activity: 54.1%
Spodoptera litura [2]
  Time: 3.8 days
Spodoptera litura [3]
  Time: 9.7 days
Spodoptera litura [4]
  Activity: 16.1%
Spodoptera litura [5]
  Time: 15.3 days
Spodoptera litura [6]
  Time: 2.7 days
Spodoptera litura [7]
  Activity: 55.3%
Spodoptera litura [8]
  Time: 4.4 days
Spodoptera litura [9]
  Activity: 15%
Spodoptera litura [10]
  Time: 4.4 days

Source: ChEMBL document CHEMBL3044939, “Insect antifeedant and growth regulating activities of quassinoids from Samadera indica” (2001)
